# Article PMC6906261 (The journal of pain : official journal of the American Pain …, 2019)
# Counter-ions that a name gives are not always drawn.
# Assays:
# CD-1 mice [1] = details: mouse, in vivo
# CD-1 mice [2] = details: mouse, in vivo; remark: listed apart in the source
# CD-1 mice [3] = details: general literature value; cited from earlier work
# CD-1 mice [4] = details: mouse, in vivo; remark: listed apart in the source
# TNFα mRNA = details: mouse, in vivo
# CD-1 mice [5] = details: mouse, in vivo; remark: listed apart in the source
# CD-1 mice [6] = details: mouse, in vivo; remark: listed apart in the source
compound,measurement,setting,value
"CN1CC[C@]23c4c5ccc(O)c4O[C@H]2[C@@H](O)C=C[C@H]3[C@H]1C5 [Morphine, Morphine sulfate pentahydrate]","Tolerance – Days to Zero Efficacy, CIPN, 10 mg/kg",CD-1 mice [1],2.2 (1.9-3.3) days
same,Rotarod motor impairment (latency to fall),CD-1 mice [2],no impairment
same,Tail flick A50 from the literature,CD-1 mice [3],around 3.2 mg/kg
same,"Withdrawal GI output, CIPN mice",CD-1 mice [4],robust jumping and GI output response
same,"Withdrawal GI output, pain-naïve mice",CD-1 mice [4],robust jumping and GI output behavior
same,"Withdrawal jumping behavior, CIPN mice",CD-1 mice [4],robust jumping and GI output response
same,"Withdrawal jumping behavior, pain-naïve mice",CD-1 mice [4],robust jumping and GI output behavior
same,TNFα mRNA level in spinal cord in CIPN,TNFα mRNA,did not alter
same,"Anti-nociceptive efficacy on day 3, HIV Neuropathy",CD-1 mice [5],zero efficacy
same,"Tolerance – Days to Zero Efficacy, HIV Neuropathy, 10 mg/kg",CD-1 mice [5],3.0 (2.7-3.6) days
C=CCN1CC[C@]23c4c5ccc(O)c4O[C@H]2C(=O)CC[C@@]3(O)[C@H]1C5 [Naloxone],"Decrease of tail flick AUC vs vehicle group, naloxone it",CD-1 mice [6],4.6%
same,"Effect of antagonist on SRI-22141 tail flick anti-nociception, naloxone icv",CD-1 mice [6],strongly reduced
same,"Effect of antagonist on SRI-22141 tail flick anti-nociception, naloxone ip",CD-1 mice [6],completely prevented
Oc1ccc2c3c1O[C@H]1c4[nH]c5ccccc5c4C[C@@]4(O)[C@@H](C2)N(CC2CC2)CC[C@]314 [Naltrindole],Effect of antagonist on SRI-22141 anti-nociception in CIPN,CD-1 mice [1],strongly reduced
same,"Effect of antagonist on SRI-22141 tail flick anti-nociception, naltrindole ip",CD-1 mice [6],no impact
same,Effect of antagonist on TNFα mRNA decrease caused by SRI-22141,TNFα mRNA,reversed the decrease in TNFα caused by SRI-22141 back to baseline
